Values joined by “and” are separate entries in the source; they are usually repeats but may differ in a detail not shown here. Equal entries are not always repeated.
Tests used:
PIK3CA (human) = PIK3CA (human) (UniProt P42336); test: Enzyme Assay
PIK3CB (Human) = PIK3CB (Human) (UniProt P42338); test: Enzyme Assay
PIK3CD (Human) [1] = target: PIK3CD (Human) (UniProt O00329); test: Enzyme Assay
PIK3CD (Human) [2] = target: PIK3CD (Human) (UniProt O00329); test: Cell-Based Assay; settings: raji
PIK3CG (human) = PIK3CG (human) (UniProt P48736); test: Enzyme Assay
Sequence of PIK3CG (human) (P48736 whole entry, looked up): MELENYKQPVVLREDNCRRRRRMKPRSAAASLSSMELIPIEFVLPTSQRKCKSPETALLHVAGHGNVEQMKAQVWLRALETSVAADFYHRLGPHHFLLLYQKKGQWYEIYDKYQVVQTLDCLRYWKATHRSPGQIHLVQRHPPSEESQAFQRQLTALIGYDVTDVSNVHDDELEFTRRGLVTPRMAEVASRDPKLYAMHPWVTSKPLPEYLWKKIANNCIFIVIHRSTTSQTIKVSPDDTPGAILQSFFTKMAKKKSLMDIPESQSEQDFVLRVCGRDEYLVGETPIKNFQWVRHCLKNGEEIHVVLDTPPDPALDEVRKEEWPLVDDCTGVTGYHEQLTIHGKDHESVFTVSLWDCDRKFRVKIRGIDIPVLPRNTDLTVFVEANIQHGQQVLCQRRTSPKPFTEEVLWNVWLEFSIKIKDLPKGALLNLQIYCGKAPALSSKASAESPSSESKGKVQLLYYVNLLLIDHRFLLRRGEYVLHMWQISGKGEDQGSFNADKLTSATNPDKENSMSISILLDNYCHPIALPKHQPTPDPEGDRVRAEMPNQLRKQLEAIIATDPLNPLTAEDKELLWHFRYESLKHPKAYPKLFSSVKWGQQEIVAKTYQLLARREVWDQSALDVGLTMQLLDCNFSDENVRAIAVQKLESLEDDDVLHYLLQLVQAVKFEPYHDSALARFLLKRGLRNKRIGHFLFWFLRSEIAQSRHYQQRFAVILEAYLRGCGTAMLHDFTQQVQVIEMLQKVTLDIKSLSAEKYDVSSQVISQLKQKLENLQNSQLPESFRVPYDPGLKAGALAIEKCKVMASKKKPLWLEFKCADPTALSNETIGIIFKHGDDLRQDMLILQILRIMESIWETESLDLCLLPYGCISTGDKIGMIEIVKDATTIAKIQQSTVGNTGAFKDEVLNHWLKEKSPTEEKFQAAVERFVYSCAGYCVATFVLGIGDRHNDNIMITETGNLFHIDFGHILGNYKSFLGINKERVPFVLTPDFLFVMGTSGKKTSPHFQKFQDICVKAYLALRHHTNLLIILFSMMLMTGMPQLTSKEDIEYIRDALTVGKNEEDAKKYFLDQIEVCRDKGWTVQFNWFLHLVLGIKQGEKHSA

Sequence of PIK3CB (Human) (P42338 whole entry, looked up): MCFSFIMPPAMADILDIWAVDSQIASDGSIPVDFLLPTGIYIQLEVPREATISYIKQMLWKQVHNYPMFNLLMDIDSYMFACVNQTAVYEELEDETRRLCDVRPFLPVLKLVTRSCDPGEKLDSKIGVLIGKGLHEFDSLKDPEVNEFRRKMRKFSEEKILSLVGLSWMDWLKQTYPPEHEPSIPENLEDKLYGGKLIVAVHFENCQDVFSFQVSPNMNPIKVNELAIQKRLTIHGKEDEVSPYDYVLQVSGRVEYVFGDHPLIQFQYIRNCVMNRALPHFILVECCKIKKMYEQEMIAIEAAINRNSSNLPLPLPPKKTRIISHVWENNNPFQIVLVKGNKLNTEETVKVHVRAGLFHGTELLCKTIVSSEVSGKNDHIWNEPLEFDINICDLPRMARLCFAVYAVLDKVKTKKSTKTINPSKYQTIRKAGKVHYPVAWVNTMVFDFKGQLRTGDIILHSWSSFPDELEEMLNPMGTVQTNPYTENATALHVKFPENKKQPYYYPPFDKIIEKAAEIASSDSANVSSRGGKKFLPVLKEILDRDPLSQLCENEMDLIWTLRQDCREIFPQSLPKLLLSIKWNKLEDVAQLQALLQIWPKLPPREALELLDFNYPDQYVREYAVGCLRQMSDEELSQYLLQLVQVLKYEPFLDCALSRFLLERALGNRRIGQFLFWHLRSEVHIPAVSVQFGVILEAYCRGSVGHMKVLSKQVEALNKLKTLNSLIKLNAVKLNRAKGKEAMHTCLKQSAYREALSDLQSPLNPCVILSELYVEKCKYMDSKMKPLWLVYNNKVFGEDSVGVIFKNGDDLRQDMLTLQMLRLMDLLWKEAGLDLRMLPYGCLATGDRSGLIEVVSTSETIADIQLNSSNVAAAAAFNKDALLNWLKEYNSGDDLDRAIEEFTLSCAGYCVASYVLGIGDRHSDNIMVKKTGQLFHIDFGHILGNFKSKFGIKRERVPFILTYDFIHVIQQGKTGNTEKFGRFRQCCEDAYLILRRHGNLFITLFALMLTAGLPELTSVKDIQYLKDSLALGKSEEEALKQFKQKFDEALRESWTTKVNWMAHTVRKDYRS
Sequence of PIK3CD (Human) (O00329 whole entry, looked up): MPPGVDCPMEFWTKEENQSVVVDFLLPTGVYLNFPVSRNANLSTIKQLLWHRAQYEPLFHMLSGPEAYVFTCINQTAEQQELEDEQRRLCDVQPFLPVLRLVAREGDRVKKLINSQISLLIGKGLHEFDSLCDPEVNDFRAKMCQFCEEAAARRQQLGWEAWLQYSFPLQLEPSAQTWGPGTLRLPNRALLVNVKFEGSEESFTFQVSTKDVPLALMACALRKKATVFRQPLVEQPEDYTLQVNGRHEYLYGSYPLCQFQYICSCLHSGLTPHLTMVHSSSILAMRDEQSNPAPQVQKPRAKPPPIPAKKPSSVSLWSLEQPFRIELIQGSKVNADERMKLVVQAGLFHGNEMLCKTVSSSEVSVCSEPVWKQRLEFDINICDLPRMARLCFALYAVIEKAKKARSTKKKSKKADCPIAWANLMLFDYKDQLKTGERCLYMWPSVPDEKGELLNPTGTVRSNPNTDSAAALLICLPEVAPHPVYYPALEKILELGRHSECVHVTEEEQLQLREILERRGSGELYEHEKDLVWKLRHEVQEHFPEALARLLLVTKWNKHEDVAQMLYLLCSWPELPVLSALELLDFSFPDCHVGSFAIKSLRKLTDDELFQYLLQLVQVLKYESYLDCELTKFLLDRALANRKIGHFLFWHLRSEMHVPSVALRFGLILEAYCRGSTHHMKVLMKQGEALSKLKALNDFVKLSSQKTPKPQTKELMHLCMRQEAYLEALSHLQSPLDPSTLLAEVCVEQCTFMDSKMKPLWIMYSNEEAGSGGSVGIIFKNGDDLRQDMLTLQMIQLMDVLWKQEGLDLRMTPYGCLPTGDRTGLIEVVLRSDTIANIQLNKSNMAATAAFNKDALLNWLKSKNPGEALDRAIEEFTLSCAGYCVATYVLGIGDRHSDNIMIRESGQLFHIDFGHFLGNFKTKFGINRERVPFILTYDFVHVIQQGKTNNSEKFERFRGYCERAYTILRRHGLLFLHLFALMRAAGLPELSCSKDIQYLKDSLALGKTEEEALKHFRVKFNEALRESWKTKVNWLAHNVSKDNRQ
Sequence of PIK3CA (human) (P42336 whole entry, looked up): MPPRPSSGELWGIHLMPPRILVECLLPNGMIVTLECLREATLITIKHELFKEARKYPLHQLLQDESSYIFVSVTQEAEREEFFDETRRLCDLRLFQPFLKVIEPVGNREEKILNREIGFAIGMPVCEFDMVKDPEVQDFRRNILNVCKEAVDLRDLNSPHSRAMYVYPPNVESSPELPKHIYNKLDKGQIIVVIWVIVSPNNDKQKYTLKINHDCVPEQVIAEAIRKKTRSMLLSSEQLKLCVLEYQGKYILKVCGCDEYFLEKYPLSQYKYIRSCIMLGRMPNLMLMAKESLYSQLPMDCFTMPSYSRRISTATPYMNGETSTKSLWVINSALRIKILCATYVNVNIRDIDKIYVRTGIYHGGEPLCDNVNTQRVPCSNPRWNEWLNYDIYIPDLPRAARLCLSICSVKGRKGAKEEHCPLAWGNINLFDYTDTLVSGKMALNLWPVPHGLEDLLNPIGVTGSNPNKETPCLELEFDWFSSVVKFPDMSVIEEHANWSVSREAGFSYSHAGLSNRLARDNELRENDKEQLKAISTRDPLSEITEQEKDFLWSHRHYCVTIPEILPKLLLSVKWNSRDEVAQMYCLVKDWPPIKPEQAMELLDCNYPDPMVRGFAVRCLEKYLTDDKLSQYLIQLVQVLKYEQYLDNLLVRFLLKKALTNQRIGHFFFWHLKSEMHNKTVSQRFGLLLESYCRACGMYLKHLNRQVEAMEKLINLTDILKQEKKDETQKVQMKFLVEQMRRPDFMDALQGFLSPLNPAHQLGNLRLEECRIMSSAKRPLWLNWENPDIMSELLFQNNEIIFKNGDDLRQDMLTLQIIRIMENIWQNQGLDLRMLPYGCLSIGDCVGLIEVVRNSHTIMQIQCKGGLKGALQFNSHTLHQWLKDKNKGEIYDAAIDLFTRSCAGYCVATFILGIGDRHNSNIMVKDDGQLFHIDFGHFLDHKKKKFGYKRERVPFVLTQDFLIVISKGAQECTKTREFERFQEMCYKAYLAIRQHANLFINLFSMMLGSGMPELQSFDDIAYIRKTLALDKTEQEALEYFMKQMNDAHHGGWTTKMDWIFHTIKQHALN

SMILES	IC50 (PIK3CA (human)) [nM]	IC50 (PIK3CB (Human))	IC50 (PIK3CD (Human) [1])	IC50 (PIK3CD (Human) [2]) [nM]	IC50 (PIK3CG (human)) [nM]
CC(C)Oc1ccc(-c2cnc(N)c(C(=O)N[C@@H](C)c3cc4cccc(Cl)c4c(=O)n3-c3ccccc3)n2)cc1	≥ 10000	≥ 10000 nM	≥ 10000 nM	≥ 10000	–
C[C@H](NC(=O)c1c(N)nn2cccnc12)c1cc2cccc(N(C)C)c2c(=O)n1-c1ccccc1	≥ 10000	≥ 10000 nM	≥ 10000 nM	–	–
C[C@H](NC(=O)c1c(N)nn2cccnc12)c1cc2cccc(Cl)c2c(=O)n1-c1ccccc1	–	100 to 1000 nM	100 to 1000 nM	< 100	–
C[C@H](NC(=O)c1c(N)nn2cccnc12)c1cc2cccc(Cl)c2c(=O)n1CC(O)CO (stereo partly drawn)	–	< 100 nM	100 to 1000 nM	< 100	100 to 1000
C[C@H](NC(=O)c1c(N)nn2cccnc12)c1cc2scc(Cl)c2c(=O)n1-c1ccccc1	–	100 to 1000 nM	100 to 1000 nM	< 100	< 100
C[C@H](NC(=O)c1nc(-c2csc(S(C)(=O)=O)n2)cnc1N)c1cc2cccc(Cl)c2c(=O)n1-c1ccccc1	≥ 10000	–	≥ 10000 nM	–	–
C[C@H](NC(=O)c1c(N)nn2cccnc12)c1cc2scc(-c3cnn(C)c3)c2c(=O)n1-c1ccccc1	≥ 10000	≥ 10000 nM	≥ 10000 nM	–	–
C[C@H](NC(=O)c1c(N)nn2cccnc12)c1c(Br)c2cccc(Cl)c2c(=O)n1-c1ccccc1	–	–	100 to 1000 nM	< 100	< 100
C[C@H](NC(=O)c1c(N)nn2cccnc12)c1cc2cccc(-c3cncc(NS(C)(=O)=O)c3)c2c(=O)n1-c1ccccc1	–	≥ 10000 nM	100 to 1000 nM	< 100	100 to 1000
C[C@H](NC(=O)c1c(N)nn2cccnc12)c1cc2cccc(-c3cccnc3)c2c(=O)n1-c1ccccc1	–	≥ 10000 nM	100 to 1000 nM	< 100	100 to 1000
C[C@H](NC(=O)c1c(N)nn2cccnc12)c1cc2cccc(Cl)c2c(=O)n1C	–	< 100 nM	100 to 1000 nM	< 100	100 to 1000
Cc1cnc(C(=O)N[C@@H](C)c2cc3cccc(C(F)(F)F)c3c(=O)n2-c2ccccc2)c(N)n1	≥ 10000	≥ 10000 nM	≥ 10000 nM	–	–
C[C@H](NC(=O)c1nc(-c2ccc(S(C)(=O)=O)cc2)cnc1N)c1cc2cccc(Cl)c2c(=O)n1-c1ccccc1	≥ 10000	≥ 10000 nM	≥ 10000 nM	–	–
C[C@H](NC(=O)c1c(N)nn2cccnc12)c1cc2cccc(Cl)c2c(=O)n1CCNCCO	–	< 100 nM	100 to 1000 nM	–	–
CC[C@H](NC(=O)c1c(N)nn2cccnc12)c1cc2cccc(Cl)c2c(=O)n1-c1ccccc1	–	< 100 nM	< 100 nM	< 100	100 to 1000
C[C@H](NC(=O)c1nc(-c2cccc(NS(=O)(=O)N(C)C)c2)cnc1N)c1cc2cccc(Cl)c2c(=O)n1-c1ccccc1	–	100 to 1000 nM	100 to 1000 nM	< 100	< 100

SMILES	IC50 (PIK3CA (human)) [nM]	IC50 (PIK3CB (Human))	IC50 (PIK3CD (Human) [1])	IC50 (PIK3CD (Human) [2]) [nM]	IC50 (PIK3CG (human)) [nM]
CNc1cccc2cc([C@H](C)NC(=O)c3c(N)nn4cccnc34)n(-c3ccccc3)c(=O)c12	–	≥ 10000 nM	≥ 10000 nM	100 to 1000	–
C[C@H](NC(=O)c1nccnc1N)c1nc2cccc(Cl)c2c(=O)n1-c1ccccc1	≥ 10000	–	< 100 nM	–	100 to 1000
COc1cc(-c2cccc3cc([C@H](C)NC(=O)c4c(N)ncc5cccnc45)n(-c4ccccc4)c(=O)c23)ccn1	–	≥ 10000 nM	100 to 1000 nM	< 100	< 100
C[C@H](NC(=O)c1nc(-c2cscn2)cnc1N)c1cc2cccc(Cl)c2c(=O)n1-c1ccccc1	–	–	≥ 10000 nM	100 to 1000	100 to 1000
C[C@H](NC(=O)c1nc(-c2cccc(NS(C)(=O)=O)c2)cnc1N)c1cc2cccc(N3CCOCC3)c2c(=O)n1-c1ccccc1	≥ 10000	≥ 10000 nM	≥ 10000 nM	–	–
C[C@H](NC(=O)c1c(N)nn2cccnc12)c1cc2cccc(-c3cnn(C)c3)c2c(=O)n1-c1ccccc1	≥ 10000	≥ 10000 nM	–	< 100	100 to 1000
C[C@H](NC(=O)c1nc(-c2ccc(NS(C)(=O)=O)cc2)cnc1N)c1cc2cccc(Cl)c2c(=O)n1-c1ccccc1	≥ 10000	≥ 10000 nM	≥ 10000 nM	–	–
C[C@H](NC(=O)c1cnc2cccnn12)c1cc2cccc(Cl)c2c(=O)n1-c1ccccc1	–	–	100 to 1000 nM	100 to 1000	–
C[C@H](NC(=O)c1c(N)nn2cccnc12)c1cc2cccc(C#CCNC(=O)C3CC(=O)CC(=O)C3)c2c(=O)n1-c1ccccc1	–	–	100 to 1000 nM	–	< 100
C[C@H](NC(=O)c1c(N)nn2cccnc12)c1cc2cccc(O)c2c(=O)n1-c1ccccc1	≥ 10000	–	≥ 10000 nM	100 to 1000	–
Nc1nn2cccnc2c1C(=O)N1CCC[C@H]1c1cc2cccc(Cl)c2c(=O)n1-c1ccccc1	≥ 10000	–	≥ 10000 nM	–	–
C[C@H](NC(=O)c1c(N)nn2cccnc12)c1cc2cccc(F)c2c(=O)n1-c1ccccc1	≥ 10000	≥ 10000 nM and 100 to 1000 nM	≥ 10000 nM and 100 to 1000 nM	< 100	–
Cc1ccn2nc(N)c(C(=O)N[C@@H](C)c3cc4cccc(Cl)c4c(=O)n3-c3ccccc3)c2n1	–	< 100 nM	100 to 1000 nM	< 100	100 to 1000
C[C@H](NC(=O)c1nccnc1N)c1cc2cccc(-c3cccnc3)c2c(=O)n1-c1ccccc1	≥ 10000	≥ 10000 nM	< 100 nM	< 100	–
C[C@H](NC(=O)c1nc(-c2cccc(O)c2)cnc1N)c1cc2cccc(Cl)c2c(=O)n1-c1ccccc1	≥ 10000	–	≥ 10000 nM	100 to 1000	–

Results, then the compound that gave them:

IC50 (PIK3CA (human)) [nM]	IC50 (PIK3CB (Human))	IC50 (PIK3CD (Human) [1])	IC50 (PIK3CD (Human) [2]) [nM]	IC50 (PIK3CG (human)) [nM]	SMILES
≥ 10000	≥ 10000 nM	≥ 10000 nM	100 to 1000	–	C[C@H](NC(=O)c1nc(-c2ccccc2)cnc1N)c1cc2cccc(Cl)c2c(=O)n1-c1ccccc1
≥ 10000	≥ 10000 nM	≥ 10000 nM	100 to 1000	–	COc1cc(-c2cccc3cc(C(C)NC(=O)c4c(N)nn5cccnc45)c(-c4ccccc4)nc23)ccn1 (stereo not drawn)
–	100 to 1000 nM	< 100 nM	< 100	100 to 1000	C[C@H](NC(=O)c1nccnc1N)c1cc2cccc(Cl)c2c(=O)n1-c1ccccc1
–	≥ 10000 nM	100 to 1000 nM	< 100	< 100	COc1cncc(-c2cccc3cc([C@H](C)NC(=O)c4c(N)nn5cccnc45)n(-c4ccccc4)c(=O)c23)c1
≥ 10000	≥ 10000 nM	≥ 10000 nM	–	–	C[C@H](NC(=O)c1c(N)nn2cccnc12)c1cc2cccc(N3CCOCC3)c2c(=O)n1-c1ccccc1
≥ 10000	≥ 10000 nM	≥ 10000 nM	100 to 1000	–	C[C@H](NC(=O)c1c(N)nn2cccnc12)c1cc2cccc(NCC(F)(F)F)c2c(=O)n1-c1ccccc1
–	100 to 1000 nM	100 to 1000 nM	< 100	100 to 1000	C[C@H](NC(=O)c1c(N)nn2cccnc12)c1c(C#N)c2cccc(F)c2c(=O)n1-c1ccccc1
–	< 100 nM	100 to 1000 nM	< 100	100 to 1000	C=CCn1c([C@H](C)NC(=O)c2c(N)nn3cccnc23)cc2cccc(Cl)c2c1=O
≥ 10000	< 100 nM	< 100 nM	< 100	–	C[C@H](NC(=O)c1c(N)nn2cccnc12)c1cc2cccc(Cl)c2c(=O)n1CCN(C)C
–	–	100 to 1000 nM	< 100	< 100	C=CC(=O)NCC#Cc1cccc2cc([C@H](C)NC(=O)c3c(N)nn4cccnc34)n(-c3ccccc3)c(=O)c12
≥ 10000	–	100 to 1000 nM	< 100	–	C[C@H](NC(=O)c1cncc2cccnc12)c1cc2cccc(Cl)c2c(=O)n1-c1ccccc1
–	100 to 1000 nM	< 100 nM	< 100	< 100	C[C@H](NC(=O)c1c(N)nn2cccnc12)c1nc2cccc(Cl)c2c(=O)n1-c1ccccc1
–	100 to 1000 nM	100 to 1000 nM	< 100	< 100	Cc1c([C@H](C)NC(=O)c2c(N)nn3cccnc23)n(-c2ccccc2)c(=O)c2c(F)cccc12
–	< 100 nM	< 100 nM	–	–	CNCCn1c([C@H](C)NC(=O)c2c(N)nn3cccnc23)cc2cccc(Cl)c2c1=O
–	100 to 1000 nM	100 to 1000 nM	< 100	< 100	C[C@H](NC(=O)c1c(N)nn2cccnc12)c1cc2cccc(Cl)c2c(=O)n1-c1cccc(F)c1
≥ 10000	≥ 10000 nM	100 to 1000 nM	< 100	–	C[C@H](NC(=O)c1nccnc1N)c1cc2cccc(-c3cc[nH]n3)c2c(=O)n1-c1ccccc1
–	–	≥ 10000 nM	100 to 1000	–	C[C@H](NC(=O)c1nc(-c2cnn(C)c2)cnc1N)c1cc2cccc(Cl)c2c(=O)n1-c1ccccc1
≥ 10000	≥ 10000 nM	–	< 100	100 to 1000	C[C@H](NC(=O)c1nccnc1N)c1cc2cccc(-c3cnn(C)c3)c2c(=O)n1-c1ccccc1
≥ 10000	≥ 10000 nM	≥ 10000 nM	–	–	COC(=O)c1ncsc1-c1cccc2cc([C@H](C)NC(=O)c3c(N)nn4cccnc34)n(-c3ccccc3)c(=O)c12
–	100 to 1000 nM	100 to 1000 nM	< 100	100 to 1000	C[C@H](NC(=O)c1c(N)ncc2cccnc12)c1cc2cccc(Cl)c2c(=O)n1-c1ccccc1
100 to 1000	–	100 to 1000 nM	< 100	< 100	COc1cc(-c2cccc3nc([C@H](C)NC(=O)c4c(N)nn5cccnc45)n(-c4ccccc4)c(=O)c23)ccn1
≥ 10000	–	≥ 10000 nM	–	≥ 10000	C[C@H](NC(=O)c1c(N)nn2cccnc12)c1cc2cccc(Cl)c2c(=O)n1CC(=O)N(C)C
≥ 10000	≥ 10000 nM	≥ 10000 nM	–	–	COc1cc(-c2cccc3cc([C@H](C)NC(=O)c4c(N)nn5cccnc45)n(C4CCCCC4)c(=O)c23)ccn1
